{
  "source": "patent US20170247429A1",
  "about": "“BLOOD-BRAIN BARRIER DISRUPTING AGENTS AND USES THEREOF” (TEL HASHOMER MEDICAL RESEARCH INFRASTRUCTURE AND SERVICES …, priority 2014, published 2017)",
  "key": {"[1]": {"test_system": "brain-glioma (CNS-1) tumor", "experiment": "Tumor growth in glioma rat model (T1-weighted MRI tumor volumes)", "type": "in vivo, Lewis male rats", "conditions": "MTX 6 mg/kg IP, EA-HSA 0.5 mg/ml CED where combined", "experimental": "Intracranial inoculation of the tumor was performed as follows: a midline scalp incision was carried out under general anesthesia in order to locate the bregma. A burr hole (1 mm) was drilled on the right side, 3 mm anterior and 2 mm lateral to the bregma. A 33-gauge needle attached to a 1,000 μl syringe was placed stereotactically into the striatum to a depth of 5 mm through which a pellet of 2×10^5 CNS-1 rat glioma cells precipitated in 10 μl PBS buffer was infused into the striatum. The infusion was performed with a BASI syringe pump at a rate of 2 μl/min over a period of 5 min. The burr hole was sealed with bone wax to avoid the tumors from growing out of the skull. The intracranial inoculation of the tumor is designated Day-4 in Table 2.\nEA-HSA was administered by CED into the rat brains under full anesthesia. For CED, a midline scalp incision was made under anesthesia to identify the bregma. Then, a burr hole (1 mm) was made in the right region of the skull, 3 mm anterior and 2 mm lateral to the bregma. […]\nThe volume (in mm^3) of BBB disruption and the increase in tumor volume were calculated from T1-weighted MR images. […] The number of pixels in the ROIs was then counted and multiplied by the volume of a single pixel (voxel). Tumor growth rates were calculated by dividing the tumor volumes at days 2 and 7 post treatment with the baseline tumor volumes (measured at day 0)."}, "[2]": {"conditions": "rat, in vivo, ip, 6 mg/kg", "experimental": "Additionally, MTX was administered intraperitoneally to naïve rats (n=26) at a dosage of 6 mg/kg body weight on days 0, 2 and 4. […] The combined administration, MTX even at three times of its maximal tolerated dose, with folinic acid prevented MTX toxicity."}, "[3]": {"test_system": "intracranial CNS-1 glioma tumors", "experiment": "Survival of glioma-bearing rats (Kaplan-Meier)", "type": "in vivo, Lewis male rats", "conditions": "rats bearing intracranial CNS-1 glioma; monitored up to 60 days", "experimental": "The three rats groups were monitored for survival. Rats were monitored daily and sacrificed when lost>20% of body weight and/or were unable to eat or drink. Rats were monitored up to 60 days after the tumor cell implantation. The Kaplan-Meier survival curves were analyzed according to the Wilcoxon test."}},
  "data": [
    {"smiles": "CN(Cc1cnc2nc(N)nc(N)c2n1)c1ccc(C(=O)N[C@@H](CCC(=O)O)C(=O)O)cc1", "note": "[MTX, Methotrexate]", "values": [
      {"measurement": "tumor volume normalized to day 0 (tumor growth rate)", "setting": "[1]; day 2 post treatment", "result": "2.2±0.4"},
      {"measurement": "tumor volume normalized to day 0 (tumor growth rate)", "setting": "[1]; day 7 post treatment", "result": "2.2±0.4"},
      {"measurement": "toxicity of MTX regimen", "setting": "[2]", "result": "symptomatic toxicity"},
      {"measurement": "median survival time", "setting": "[3]", "result": 12, "unit": "days"}
    ]}
  ]
}
